Experimental data from US7910363B1, “Lipophilic polyamines providing enhanced intracellular delivery of agents by a polyamine transport system” (University of Central Florida Research Foundation, Inc., priority 2007, dated 2011).

Experiments:
CHO K1 cells [1] = test: eGFP DNA plasmid transfection, GFP expression by FACS (FIG. 10, FIG. 11); assay type: cell-based, Chinese hamster; details: for % GFP positive cells (transfection efficiency): 5 μg/mL dose
Description: (§1) Medium was then changed, and cells were incubated for another 24 h to allow for GFP plasmid expression; cells were detached by trypsin treatment and analyzed for GFP expression by FACS; Lipofectamine is denoted as LFA; the value obtained with DNA plasmid only was subtracted from each entry above (almost negligible);
In order for the ‘therapy’ to be effective, the DNA must escape from the endosome and enter the cell's nucleus, be transcribed to a regulatory, non coding RNA (RNAi) or to mRNA that is translated into its coded protein. Therefore, we investigated the conjugate-assisted expression of an eGFP DNA plasmid encoding for the green fluorescent protein (GFP). CHO cells, which were successfully transfected, were easily identified by their green fluorescence. Control experiments conducted with only the eGFP DNA plasmid (and no lipid carrier) gave virtually no fluorescence. A gate or instrumental threshold was set based upon this low background fluorescence. Fluorescence detected above this background was considered a positive response.
as §1, with “expression. Cells” for “expression; cells”, “FACS.” for “FACS;”, “LFA. The” for “LFA; the”, “negligible).” for “negligible);”
A gate was set just above the threshold measured with no DNA plasmid and no conjugate added (almost negligible). […] Data are presented as the mean±SD.
(§2) GFP transfection experiments—eGFP encoding DNA plasmid with or without cationic lipid was mixed in F12K and incubated with pre-rinsed, sub-confluent cells in 24-well plates for 4 h, followed by another incubation period of 24 h in growth medium. Cells were then washed with PBS, detached by trypsin treatment, dissolved in PBS, 1% BSA, and analyzed by FACS for GFP expression.

CHO K1 cells [2] = details: for DNA uptake, fluorescence of imported Alexa Fluor-488-DNA: 5 μg/mL cationic lipid (black bars, FIG. 8), 1 μg/mL DNA, 4 h at 37° C.; for DNA uptake compared with the lipofectamine control: 0.5, 2.5, 5 μg/mL; for increase in DNA uptake/delivery over diamine 22: FIG. 8, 5 μg/mL dose
Description: CHO K1 cells were grown to confluence in 24-well plates, rinsed with medium and incubated for 4 h at 37° C. with 1 μg/mL Alexa Fluor-488-DNA complexed with 0.5 μg/mL (white bars), 2.5 μg/mL (gray bars), or 5 μg/mL (black bars) of the respective cationic lipid, as indicated above each entry; cells were then extensively washed with PBS, treated with trypsin, and cell pellets were again extensively washed with PBS 1% BSA to completely remove non-specific fluorescence from the cell exterior; finally, cells were analyzed for Alexa Fluor-488-DNA uptake by flow cytometry on a FACSCalibur (BD Biosciences) operated by Cell-Quest software.
CHO K1 cells were grown to confluence in 24-well plates, rinsed with medium and incubated for 4 h at 37° C. with 1 μg/mL Alexa Fluor-488-DNA complexed with 0.5 μg/mL (white bars), 2.5 μg/mL (grey bars), or 5 μg/mL (black bars) of the respective cationic lipid, as indicated above each entry. Cells were then extensively washed with PBS, treated with trypsin, and cell pellets were again extensively washed with PBS 1% BSA to completely remove non-specific fluorescence from the cell exterior. Finally, cells were analyzed for Alexa Fluor-488-DNA uptake by flow cytometry on a FACSCalibur (BD Biosciences) operated by Cell-Quest software.
A gate was set just above the threshold signal for control cells (DNA only with no lipid conjugate). […] Data are presented as the mean±SD.
AlexaFluor-488 labeled DNA with or without cationic lipid was mixed in serum-free F12K and added to extensively rinsed cells grown in 24-well plates. Cells were then incubated for 4 h at 37° C. After removal of the incubation medium and rinsing with PBS, cells were detached with trypsin followed by extensive washing with ice-cold PBS, 1% (w/v) bovine serum albumin (BSA) to remove non-specific fluorescence. Finally, cells were suspended in PBS, 1% BSA and analyzed for DNA uptake by flow cytometry on a FACSCalibur (BD Biosciences) operated by Cell-Quest software.

[3] = system: DU145 human prostate cancer cells; test: Lipopolyamine-induced sensitization to FGF-saporin intoxication, DU145; assay type: cell-based
Description: (§3) We have also documented lipopolyamine-induced toxin sensitization with two other saporin-based toxins: (i) FGF-saporin, a chemical conjugate between fibroblast growth factor and saporin; and (ii) the OKT10 immunotoxin which consists of a chemical conjugate between saporin and an antibody that recognizes the CD38 cancer antigen. DU145 human prostate cancer cells exposed to lipopolyamine 26 and FGF-saporin were 85-fold more sensitive to intoxication than cells incubated with FGF-saporin alone. […] We have also shown that Ramos human leukemia cells exposed to lipopolyamine 26 and OKT10 are 100-fold more sensitive to intoxication than cells incubated with OKT10 alone.

[4] = system: Ramos human leukemia cells; test: Sensitization to OKT10 immunotoxin intoxication, Ramos; assay type: cell-based
Description: as §3

HeLa cells [5] = test: Sensitization to FGF-saporin intoxication in non-target HeLa cells; assay type: cell-based; details: which do not express the FGF receptor
[6] = system: polyamine transporter, PAT; test: [14C]Spermine uptake inhibition (competition assay) in CHO-K1 cells (FIG. 12); assay type: cell-based, Chinese hamster
Description: We theorized that 26 may be using the polyamine transporter, PAT, for cellular entry. […] This observation implied that 26 was able to compete for the polyamine recognition sites on the cell surface (e.g., PAT). Therefore, it is possible that certain lipophilic polyamines, which present the correct polyamine ‘message’, may be able to recognize and target cells expressing high levels of polyamine transporters on their cell surface (e.g., cancer cells, rapidly dividing tumors, etc.). However, as shown in this report, delivery into the cell is just one step in successful gene transfection. Nevertheless, the findings disclosed herein are an important first step in developing ‘smart’ transfection agents.

CHO K1 cells [7] = assay type: cell-based; details: Chinese hamster, 24 h, 0.5 μM
Description: Taking these factors into account, cytotoxicity screens were performed to investigate the relative toxicity of each system. Most materials were relatively non-toxic with IC50 values ≧20 μM. Armed with this insight, cells were treated with ≦6.4 μM of the polyamine conjugate so as to avoid significant toxic effects from the delivery agent itself. Indeed, at this dose ≧90% of cells survived transfection for all compounds except 28. Indeed, compound 28 was very toxic (after 24 h incubation) and even at the lowest dose used for transfection (0.5 μg/mL; 0.5 μM 28) killed 95% of the cells. As such, 28 was too toxic for efficient transfection at the doses surveyed and its data is strongly biased by the few remaining cells, which survived.
as §2

HeLa cells [8] = details: cited from earlier work

Structure (SMILES)	% GFP positive cells (transfection efficiency) (CHO K1 cells [1]; FIG. 11)	DNA uptake, fluorescence of imported Alexa Fluor-488-DNA (CHO K1 cells [2])	GFP expression/cell (CHO K1 cells [1]; 5 μg/mL, FIG. 10)	DNA uptake compared with the lipofectamine control (CHO K1 cells [2]; FIG. 8)	increase in DNA uptake/delivery over diamine 22 (CHO K1 cells [2])	also measured
CCCCCCCCC=CCCCCCCCCOc1ccc(CNCCCCN)cc1OCCCCCCCCC=CCCCCCCCC.Cl.Cl [Compound 22, N^1-(3,4-Bis-octadec-9-enyloxy-benzyl)-butane-1,4-diamine, dihydrochloride salt]	38%	94 a.u.	–	–	–	–
CCCCCCCCC=CCCCCCCCCOc1ccc(CNCCCCCCCCN)cc1OCCCCCCCCC=CCCCCCCCC.Cl.Cl [Compound 23, N^1-(3,4-Bis-octadec-9-enyloxy-benzyl)-octane-1,8-diamine, dihydrochloride salt]	23%	–	5 a.u.	–	–	positive cells of the total cell population after DNA uptake experiment (CHO K1 cells [2]; 5 μg/mL, black bars in FIG. 9, gated): 84%
CCCCCCCCC=CCCCCCCCCOc1ccc(CNCCOCCOCCN)cc1OCCCCCCCCC=CCCCCCCCC.Cl.Cl [Compound 24, 2-{2-[2-(3,4-Bis-octadec-9-enyloxy-benzylamino)-ethoxy]-ethoxy}-ethylamine, dihydrochloride salt]	25%	–	7 a.u.	as good	–	DNA delivery (DNA probe fluorescence) of polyether eight-atom spacer versus octanediamine analogue (CHO K1 cells [2]; FIG. 8): nearly doubled
CCCCCCCCC=CCCCCCCCCOc1ccc(CNCCCCNCCCCN)cc1OCCCCCCCCC=CCCCCCCCC.Cl.Cl.Cl [Compound 25, N-(4-Amino-butyl)-N′-(3,4-bis-octadec-9-enyloxy-benzyl)-butane-1,4-diamine, tri hydrochloride salt]	49%	281 a.u.	–	as good	3 fold	transfection efficiency compared with 22 (CHO K1 cells [1]; FIG. 11): only slightly higher transfection efficiency than 22; DNA delivery compared with 22 (CHO K1 cells [2]; FIG. 8): three-fold increase
CCCCCCCCC=CCCCCCCCCOc1ccc(CNCCCCNCCCCNCCCCN)cc1OCCCCCCCCC=CCCCCCCCC.Cl.Cl.Cl.Cl [Compound 26, N-[4-(4-Amino-butylamino)-butyl]-N′-(3,4-bis-octadec-9-enyloxy-benzyl)-butane-1,4-diamine, tetrahydrochloride salt]	67%	504 a.u.	25 a.u.	better	> 5 fold	sensitivity to FGF-saporin intoxication versus FGF-saporin alone [3]: 85 fold; higher transfection efficiency than the LFA control (CHO K1 cells [1]; 5 μg/mL, FIG. 11): over 50%; relative GFP expression/cell versus LFA (CHO K1 cells [1]; FIG. 10): two fold higher; % of GFP positive cells relative to LFA (CHO K1 cells [1]; FIG. 11): 1.5 fold; sensitivity to OKT10 intoxication versus OKT10 alone [4]: 100 fold; DNA delivered to the cell relative to control LFA (CHO K1 cells [2]; black bars in FIG. 8, 5 μg/mL): 3 fold; sensitization of non-target cells to FGF-saporin (HeLa cells [5]): no more sensitive to intoxication; IC50 ([6]; 1 μM [14C]spermine, 20 min, serum free medium, CHO-K1): ~10 µM; polyamine uptake inhibition ([6]; FIG. 12 legend): efficient inhibitor of polyamine uptake
CCCCCCCCC=CCCCCCCCCOc1ccc(C(=O)NCCCCNCCCCN)cc1OCCCCCCCCC=CCCCCCCCC.Cl.Cl [Compound 27, N-[4-(4-Amino-butylamino)-butyl]-3,4-bis-octadec-9-enyloxy-benzamide, dihydrochloride salt]	40%	–	–	better	greater than 4 fold	transfection efficiency compared with 22 (CHO K1 cells [1]; FIG. 11): nearly identical transfection efficiency; DNA delivery compared with 22 (CHO K1 cells [2]; FIG. 8): more efficient DNA delivery agent than 22
CCCCCCCCC=CCCCCCCCCOc1ccc(C(=O)NCCCCNCCCCNCCCCN)cc1OCCCCCCCCC=CCCCCCCCC.Cl.Cl.Cl [Compound 28, N-{4-[4-(4-Amino-butylamino)-butylamino]-butyl}-3,4-bis-octadec-9-enyloxy-benzamide, trihydrochloride salt]	–	–	–	–	–	cells killed (CHO K1 cells [7]): 95%
CCCCCCCCCCCCCCCCCCN(CCCCCCCCCCCCCCCCCC)C(=O)CNC(=O)CNCCCNCCCCNCCCN [RPR 120535]	–	–	–	–	–	more effective at transfection than branched-, globular- or T-shaped polar domains (HeLa cells [8]): 5-10 times
